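Following 48 hours of exposure in 96-well plates, responses at five concentrations were used to interpolate endpoints linearly. GI50 is the concentration that inhibits growth by half.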 Calls of active or inactive are those of the source. Cut-off read from the data, not from the text of the source: active = GI50 up to about 1.1 µM and inactive = higher.
Assays:
Assay in all cases: NCI tumour cell line growth inhibition, 48 h
UACC-257 = test system: UACC-257
MDA-MB-231 = test system: MDA-MB-231
OVCAR-8 = test system: OVCAR-8
SW-620 = test system: SW-620
U-251 = test system: U-251
DU-145 = test system: DU-145
SK-OV-3 = test system: SK-OV-3
K562 = test system: K562
MOLT-4 = test system: MOLT-4
SNB-75 = test system: SNB-75
LOX IMVI = test system: LOX IMVI
MCF7 = test system: MCF7
T47D = test system: T47D
TK-10 = test system: TK-10
HOP-62 = test system: HOP-62
M14 = test system: M14
NCI-H460 = test system: NCI-H460
NCI-H23 = test system: NCI-H23
ACHN = test system: ACHN
HOP-92 = test system: HOP-92

Structure (SMILES) | GI50 (UACC-257) | GI50 (MDA-MB-231) | GI50 (OVCAR-8) | GI50 (SW-620) | GI50 (U-251) | GI50 (DU-145) | GI50 (SK-OV-3) | GI50 (K562) | GI50 (MOLT-4) | GI50 (SNB-75) | GI50 (LOX IMVI) | GI50 (MCF7) | GI50 (T47D) | GI50 (TK-10) | GI50 (HOP-62) | GI50 (M14) | GI50 (NCI-H460) | GI50 (NCI-H23) | GI50 (ACHN) | GI50 (HOP-92)
COc1cc(-c2ccc(Nc3ccccc3C(=O)O)c(OC)c2)ccc1Nc1ccccc1C(=O)O | 20.5 µM (inactive) | 13.7 µM (inactive) | 8.95 µM (inactive) | 7.38 µM (inactive) | 3.3 µM (inactive) | 8.65 µM (inactive) | 23.4 µM (inactive) | 1.35 µM (inactive) | 1.13 µM (inactive) | 30.2 µM (inactive) | 1.28 µM (inactive) | 5.08 µM (inactive) | 11.2 µM (inactive) | 36.6 µM (inactive) | 8.57 µM (inactive) | 26.5 µM (inactive) | 1.94 µM (inactive) | 18.3 µM (inactive) | 8.69 µM (inactive) | 41 µM (inactive)
CC(Oc1ccccc1Cl)C(=O)NN1C(=O)CC(=O)N(c2ccccc2)C1=S (centres undefined) | 55.2 µM (inactive) | 42.7 µM (inactive) | 41.4 µM (inactive) | 55.7 µM (inactive) | 41 µM (inactive) | 42.9 µM (inactive) | 51.5 µM (inactive) | 33.7 µM (inactive) | 30 µM (inactive) | 49.1 µM (inactive) | 38.4 µM (inactive) | 31 µM (inactive) | 31.9 µM (inactive) | 74.8 µM (inactive) | 46.7 µM (inactive) | 59 µM (inactive) | 44.2 µM (inactive) | 38.1 µM (inactive) | 38.3 µM (inactive) | 20.4 µM (inactive)
COc1cccc(/C=C/c2cnc3ccccc3n2)c1OC | 37.4 µM (inactive) | 22 µM (inactive) | 29.7 µM (inactive) | 52.1 µM (inactive) | 39.3 µM (inactive) | 60.7 µM (inactive) | 71.6 µM (inactive) | 71 µM (inactive) | 12.9 µM (inactive) | 13.4 µM (inactive) | 36.6 µM (inactive) | 25.9 µM (inactive) | 23.2 µM (inactive) | 50.5 µM (inactive) | 24.7 µM (inactive) | 46.2 µM (inactive) | 24.8 µM (inactive) | 31.9 µM (inactive) | 50.1 µM (inactive) | 23.7 µM (inactive)
CC[C@@]1(O)C(=O)OCc2c1c(Cl)c1n(c2=O)Cc2cc3ccccc3nc2-1 | 2.39 µM (inactive) | 61 µM (inactive) | 3.05 µM (inactive) | 1.95 µM (inactive) | 1.07 µM (active) | 1.92 µM (inactive) | 4.24 µM (inactive) | 2.1 µM (inactive) | 0.327 µM (active) | 1.84 µM (inactive) | 1.16 µM (inactive) | 0.708 µM (active) | 1.31 µM (inactive) | 19 µM (inactive) | 0.733 µM (active) | 2 µM (inactive) | 0.383 µM (active) | 2.05 µM (inactive) | 1.16 µM (inactive) | 7.62 µM (inactive)
COc1cccc2c(=O)oc(-c3ccc(C(C)(C)C)cc3)nc12 | > 100 µM (inactive) | 58.1 µM (inactive) | 39.7 µM (inactive) | 55.2 µM (inactive) | 42.2 µM (inactive) | > 100 µM (inactive) | 80.9 µM (inactive) | > 100 µM (inactive) | 22.7 µM (inactive) | 23.9 µM (inactive) | 22.5 µM (inactive) | 57 µM (inactive) | 80.4 µM (inactive) | > 100 µM (inactive) | 48.2 µM (inactive) | 82 µM (inactive) | 65.8 µM (inactive) | > 100 µM (inactive) | > 100 µM (inactive) | 41.6 µM (inactive)
CCCCCCCCCCCCCCCCCCOCC(CCP(=O)(CP(=O)(O)O)Oc1ccccc1)OCCCCCCCCCCCCCCCCCC (centres undefined) | > 100 µM (inactive) | > 100 µM (inactive) | > 100 µM (inactive) | > 100 µM (inactive) | > 100 µM (inactive) | > 100 µM (inactive) | > 100 µM (inactive) | > 100 µM (inactive) | > 100 µM (inactive) | > 100 µM (inactive) | > 100 µM (inactive) | > 100 µM (inactive) | > 100 µM (inactive) | > 100 µM (inactive) | > 100 µM (inactive) | > 100 µM (inactive) | > 100 µM (inactive) | > 100 µM (inactive) | > 100 µM (inactive) | > 100 µM (inactive)
Cc1ccc2c(c1)C1(C)OC(C=CC1=O)O2 (centres undefined) | 1.01 µM (active) | 0.564 µM (active) | 0.282 µM (active) | 0.237 µM (active) | 0.29 µM (active) | 2.72 µM (inactive) | 3.24 µM (inactive) | 0.147 µM (active) | 0.225 µM (active) | 1.68 µM (inactive) | 0.573 µM (active) | 1.27 µM (inactive) | 0.705 µM (active) | 1.4 µM (inactive) | 3.43 µM (inactive) | 0.316 µM (active) | 2.21 µM (inactive) | 0.94 µM (active) | 0.522 µM (active) | 0.435 µM (active)
C=C(CC[C@@H](C)[C@H]1CC[C@H]2[C@@H]3C[C@@H](O)[C@H]4C[C@@H](O)CC[C@]4(CO)[C@H]3CC[C@]12C)C(C)C | 7.46 µM (inactive) | 4.17 µM (inactive) | 5.47 µM (inactive) | 5.98 µM (inactive) | 6.44 µM (inactive) | 3.48 µM (inactive) | 9.1 µM (inactive) | 1.49 µM (inactive) | 3.3 µM (inactive) | 8.32 µM (inactive) | 3.11 µM (inactive) | 2.67 µM (inactive) | 1.79 µM (inactive) | 2.37 µM (inactive) | 7.57 µM (inactive) | 6.97 µM (inactive) | 2.18 µM (inactive) | 5.75 µM (inactive) | 5.81 µM (inactive) | 8.28 µM (inactive)
c1ccc2c(c1)Sc1nccc3ccnc-2c13 | 73.6 µM (inactive) | > 100 µM (inactive) | 21.9 µM (inactive) | 19.3 µM (inactive) | 23.9 µM (inactive) | > 100 µM (inactive) | > 100 µM (inactive) | 71.3 µM (inactive) | 8.26 µM (inactive) | 15.2 µM (inactive) | 28.9 µM (inactive) | 12.6 µM (inactive) | 27.7 µM (inactive) | 12.4 µM (inactive) | 35.8 µM (inactive) | 79.1 µM (inactive) | 5.57 µM (inactive) | 36.8 µM (inactive) | 13.8 µM (inactive) | 43.6 µM (inactive)
N#CCC1(c2ccc(Cl)cc2)NC(=O)c2ccccc21 (centres undefined) | > 100 µM (inactive) | > 100 µM (inactive) | > 100 µM (inactive) | > 100 µM (inactive) | > 100 µM (inactive) | > 100 µM (inactive) | > 100 µM (inactive) | > 100 µM (inactive) | > 100 µM (inactive) | 60.8 µM (inactive) | > 100 µM (inactive) | > 100 µM (inactive) | > 100 µM (inactive) | 96.2 µM (inactive) | > 100 µM (inactive) | > 100 µM (inactive) | > 100 µM (inactive) | > 100 µM (inactive) | > 100 µM (inactive) | > 100 µM (inactive)
O=C(OCCN1CCCCC1)C(c1ccccc1)C1(O)CCSCC1 (centres undefined) | > 100 µM (inactive) | > 100 µM (inactive) | > 100 µM (inactive) | > 100 µM (inactive) | > 100 µM (inactive) | > 100 µM (inactive) | > 100 µM (inactive) | > 100 µM (inactive) | > 100 µM (inactive) | 83.4 µM (inactive) | > 100 µM (inactive) | > 100 µM (inactive) | > 100 µM (inactive) | > 100 µM (inactive) | > 100 µM (inactive) | > 100 µM (inactive) | > 100 µM (inactive) | > 100 µM (inactive) | > 100 µM (inactive) | > 100 µM (inactive)
CCOC(=O)c1sc2[n+](c1C)C(=O)/C(=C/c1ccc([N+](=O)[O-])cc1)S2 | 28.1 µM (inactive) | 46.6 µM (inactive) | 19.5 µM (inactive) | 28.5 µM (inactive) | 17.3 µM (inactive) | 31.3 µM (inactive) | 23.8 µM (inactive) | 20.9 µM (inactive) | 22.2 µM (inactive) | 20.5 µM (inactive) | 25.2 µM (inactive) | 21.2 µM (inactive) | 25.5 µM (inactive) | 20.6 µM (inactive) | 20.7 µM (inactive) | 31.6 µM (inactive) | 19.7 µM (inactive) | 16.1 µM (inactive) | 30.6 µM (inactive) | > 100 µM (inactive)
CN(C)c1ncc(-c2c[nH]c3ccccc23)nc1-c1c[nH]c2ccccc12 | 1.9 µM (inactive) | 2.07 µM (inactive) | 6.93 µM (inactive) | 3.38 µM (inactive) | 3.37 µM (inactive) | 7.28 µM (inactive) | 7.66 µM (inactive) | 2.8 µM (inactive) | 3.47 µM (inactive) | 1.15 µM (inactive) | 2.51 µM (inactive) | 2.3 µM (inactive) | 3.23 µM (inactive) | 8.59 µM (inactive) | 8.18 µM (inactive) | 1.89 µM (inactive) | 2.12 µM (inactive) | – | 2.67 µM (inactive) | 3.2 µM (inactive)
Cc1nc(N)sc1/N=N/c1ccccc1Br | 32.9 µM (inactive) | 37.3 µM (inactive) | > 54.3 µM (inactive) | > 53.1 µM (inactive) | 31 µM (inactive) | 34.7 µM (inactive) | > 57.7 µM (inactive) | > 65.9 µM (inactive) | > 52.2 µM (inactive) | 10.3 µM (inactive) | > 48.9 µM (inactive) | 35.4 µM (inactive) | 15.8 µM (inactive) | 37.9 µM (inactive) | 39.3 µM (inactive) | 37.7 µM (inactive) | 22.9 µM (inactive) | 28.2 µM (inactive) | 43.1 µM (inactive) | 18 µM (inactive)

Source: ChEMBL document CHEMBL1201862, “PubChem BioAssay data set” (2004)
